Data: patent US9670242B2, “Tetracyclic anthraquinone derivatives” (Tianjin Hemay Bio-Tech Co., Ltd, priority 2012, dated 2017)

How the values were obtained:
A431 cells = test: A431 cell growth inhibition test (MTT assay); format: cell-based, human; settings: 72 h
Protocol: A431 Cell Growth Inhibition Test (MTT Assay)
(§1) II. Reagents and Consumable Materials
Culture medium: 45% DMEM+45% F12+10% FBS (fetal calf serum); Pancreatin (0.25% (w/v) solution was formulated with PBS, 0.53 mM of EDTA was added in the formulation); PBS; 96-well culture plate.
(§2) 1. A plate (10 cm) of cells in logarithmic growth phase that were normally cultured was collected;
(§3) 2. The culture solution was sucked out. The plate was washed with 5 mL of PBS once or twice;
(§4) 3. PBS was sucked out. 1.5 mL of 0.25% pancreatin was added to the plate to infiltrate the cells for 1 min;
(§5) 4. The culture plate was placed in an incubator. Digestion was carried out for about 5 min at 37° C.;
(§6) 5. 3 mL of complete culture solution was added to the culture plate to stop the digestion. The cells were carefully scoured with micropipette (1 mL) to give a uniform cell suspension. The suspension was implanted into a 96-well cell culture disc by 2500 cells/100 μL per well. The culture plate was incubated overnight under 5% CO2 at 37° C. In day 2, 100 μL of culture solution comprising a compound was added in each well. The plate was further incubated for 72 h under 5% CO2 at 37° C.;
(§7) 6. The culture solution was sucked out;
(§8) 7. 100 μL of serum-free culture solution containing 0.5 mg/mL MTT was added in each well. The plate was incubated for 3 h;
(§9) 8. The culture solution was carefully sucked out;
(§10) 9. 100 μL of DMSO was added in each well and vibrated to dissolve;
(§11) 10. OD values were determined at 490 nM.
(§12) IV. Results and Treatments
(§13) 1. Calculation of Relative Inhibition Ratio The inhibition ratio of a compound on cell growth=(PC−n)/(PC−NC)×100%
(§14) PC: OD values of cells after normal growth in control wells without a compound;
(§15) n: OD values of cells after growth in test wells with a compound;
(§16) NC: Background OD values of blank wells without a compound and cells.

B16 cells = test: B16 cell growth inhibition test (MTT assay); format: cell-based, mouse; settings: 72 h
Protocol: B16 Cell Growth Inhibition Test (MTT Assay)
as §1
(§17) Culture medium: 90% RPMI1640+10% FBS (fetal calf serum); Pancreatin (0.25% (w/v) solution was formulated with PBS, 0.53 mM of EDTA was added in the formulation); PBS; 96-well culture plate.
as §2, §3, §4
(§18) 4. The culture plate was placed in an incubator. Digestion was carried out for about 1 min at 37° C.;
as §6, §7
7. 100 μl of serum-free culture solution containing 0.5 mg/mL MTT was added in each well. The plate was incubated for 3 h;
as §9, §10, §11, §12, §13, §14, §15, §16

A375 cells = test: A375 cell growth inhibition test (MTT assay); format: cell-based, human; settings: 72 h
Protocol: A375 Cell Growth Inhibition Test (MTT Assay)
as §1
Culture medium: 90% DMEM+10% FBS (fetal calf serum); Pancreatin (0.25% (w/v) solution was formulated with PBS, 0.53 mM of EDTA was added in the formulation); PBS; 96-well culture plate.
as §2, §3, §4, §5
5. 3 mL of complete culture solution was added to the culture plate to stop the digestion. The cells were carefully scoured with micropipette (1 ml) to give a uniform cell suspension. The suspension was implanted into a 96-well cell culture disc by 3000 cells/100 μL per well. The culture plate was incubated overnight under 5% CO2 at 37° C. In day 2, 100 μL of culture solution comprising a compound was added in each well. The plate was further incubated for 72 h under 5% CO2 at 37° C.;
as §7, §8, §9, §10, §11, §12, §13, §14, §15, §16

NCI-H460 cells = test: NCI-H460 cell growth inhibition test (MTT assay); format: cell-based, human; settings: NCI-460 cells (NCI-H460 in method), 72 h
Protocol: NCI-H460 Cell Growth Inhibition Test (MTT Assay)
as §1, §17, §2, §3, §4
(§19) 4. The culture plate was placed in an incubator. Digestion was carried out for about 3 min at 37° C.;
(§20) 5. 3 mL of complete culture solution was added to the culture plate to stop the digestion. The cells were carefully scoured with micropipette (1 mL) to give a uniform cell suspension. The suspension was implanted into a 96-well cell culture disc by 2000 cells/100 μL per well. The culture plate was incubated overnight under 5% CO2 at 37° C. In day 2, 100 μL of culture solution comprising a compound was added in each well. The plate was further incubated for 72 h under 5% CO2 at 37° C.;
as §7, §8, §9
9. […]
(§21) 10. OD values were determined at 490 nM. […]

MCF-7 cells = test: MCF-7 cell growth inhibition test (SRB assay); format: cell-based, human; settings: 73 h
Protocol: MCF-7 Cell Growth Inhibition Test (SRB Assay)
as §1
Culture medium: 90% EMEM+10% FBS; Pancreatin (0.25% (w/v) solution was formulated with PBS, 0.53 mM of EDTA was added in the formulation); PBS; 96-well culture plate.
as §2, §3
(§22) 3. 1.5 mL of 0.25% pancreatin was added to the plate to infiltrate the cells;
(§23) 4. The pancreatin was sucked out. The culture plate was placed in an incubator. Digestion was carried out for about 3 min at 37° C.;
5. 4 mL of complete culture solution was added to the culture plate to stop the digestion. The cells were carefully scoured with micropipette (1 mL) to give a uniform single cell suspension. The suspension was implanted into a 96-well cell culture plate by 10000 cells/100 μL per well. The culture plate was incubated overnight under 5% CO2 at 37° C. In day 2, 100 μL of culture solution comprising a compound was added in each well. The plate was further incubated for 73 h under 5% CO2 at 37° C.;
(§24) 6. The culture solution was sucked out. 100 uL of TCA fixed cells which were diluted to 10% were added to each well. The plate was kept in a refrigerator for 1 h at 4° C.
(§25) 7. TCA stationary liquid was sucked out. Each well was washed with 150 μL of ddH2O five times;
(§26) 8. After the stationary liquid was cleansed, the plate was dried in the air at the room temperature;
(§27) 9. 60 μL of SRB staining solution was added in each well. The well was stained for 15 min at the room temperature;
(§28) 10. The SRB staining solution was sucked out. Each well was washed with 150 μL of 1% glacial acetic acid five times;
(§29) 11. After the SRB staining solution was cleansed, the plate was dried in the air at the room temperature;
(§30) 12. 100 μL of 10 mM Tris was added in each well. The plate was vibrated to dissolve out SRB;
(§31) 13. OD values were determined at 570 nM.
as §12
1. Calculation of Relative Inhibition Ratio The inhibition ratio of a compound on cell growth=(PC−n)/(PC−NC)×100% […]

DU-145 cells = test: DU-145 cell growth inhibition test (MTT assay); format: cell-based; settings: 72 h
Protocol: DU-145 Cell Growth Inhibition Test (MTT Assay)
as §1
Culture medium: 90% EMEM+10% FBS (fetal calf serum); Pancreatin (0.25% (w/v) solution was formulated with PBS, 0.53 mM of EDTA was added in the formulation); PBS; 96-well culture plate.
as §2, §3, §4, §18
(§32) 5. 3 mL of complete culture solution was added to the culture plate to stop the digestion. The cells were carefully scoured with micropipette (1 mL) to give a uniform cell suspension. The suspension was implanted into a 96-well cell culture disc by 4000 cells/100 μL per well. The culture plate was incubated overnight under 5% CO2 at 37° C. In day 2, 100 μL of culture solution comprising a compound was added in each well. The plate was further incubated for 72 h under 5% CO2 at 37° C.;
as §7, §8, §9, §10, §11, §12, §13, §14, §15, §16

NCI-446 cells = test: NCI-446 cell growth inhibition test (MTT assay); format: cell-based, human; settings: 72 h
Protocol: NCI-446 Cell Growth Inhibition Test (MTT Assay)
II. Reagents and Consumable Materials Culture medium: 90% RPMI1640+10% FBS (fetal calf serum); Pancreatin (0.25% (w/v) solution was formulated with PBS, 0.53 mM of EDTA was added in the formulation); PBS; 96-well culture plate.
as §2
2. The culture solution was sucked out. The plate was washed with 5 ml of PBS once or twice;
as §4, §19, §32, §7, §8, §9
9. […]
as §21

786-O cells = test: 786-O cell growth inhibition test (MTT assay); format: cell-based, human; settings: 72 h
Protocol: 786-O Cell Growth Inhibition Test (MTT Assay)
as §1, §17, §2, §3, §4, §18, §20, §7, §8, §9, §10, §11, §12, §13, §14, §15, §16

Hep3B cells = test: Hep3B cell growth inhibition test (SRB assay); format: cell-based; settings: 72 h
Protocol: Hep3B Cell Growth Inhibition Test (SRB Assay)
as §1
Culture medium: 90% RPMI-1640+10% FBS; Pancreatin (0.25% (w/v) solution was formulated with PBS, 0.53 mM of EDTA was added in the formulation); PBS; 96-well culture plate.
as §2, §3, §22, §23
5. 4 mL of complete culture solution was added to the culture plate to stop the digestion. The cells were carefully scoured with micropipette (1 mL) to give a uniform single cell suspension. The suspension was implanted into a 96-well cell culture plate by 5000 cells/100 μL per well. The culture plate was incubated overnight under 5% CO2 at 37° C. In day 2, 100 μL of culture solution comprising a compound was added in each well. The plate was further incubated for 72 h under 5% CO2 at 37° C.;
as §24, §25, §26, §27, §28, §29, §30, §31, §12
1. Calculation of Relative Inhibition Ratio The inhibition ratio of the compound on cell growth=(PC−n)/(PC−NC)×100% […]

SK-Br-3 cells = test: SK-Br-3 cell growth inhibition test (SRB assay); format: cell-based, human; settings: 72 h
Protocol: SK-Br-3 Cell Growth Inhibition Test (SRB Assay)
as §1
Culture medium: 85% DMEM+15% FBS; pancreatin (0.25% (w/v) solution was formulated with PBS, 0.53 mM of EDTA was added in the formulation); PBS; 96-well culture plate.
as §2, §3, §22
4. The pancreatin was sucked out. The culture plate was placed in an incubator. Digestion was carried out for about 2 min at 37° C.;
5. 4 mL of complete culture solution was added to the culture plate to stop the digestion. The cells were carefully scoured with micropipette (1 mL) to give a uniform single cell suspension. The suspension was implanted into a 96-well cell culture plate by 10000 cells/100 μL per well. The culture plate was incubated overnight under 5% CO2 at 37° C. In day 2, 100 μL of culture solution comprising a compound was added in each well. The plate was further incubated for 72 h under 5% CO2 at 37° C.;
as §24
7. TCA stationary liquid was sucked out. […]
13. OD values were determined at […]. […]

[1] = Solubility of the compound in water; format: physicochemical
[2] = Storage stability detected by HPLC; format: physicochemical; settings: sealed and stored for 9 months under refrigeration conditions

Compound: COc1cccc2c1C(=O)c1c(O)c3c(c(O)c1C2=O)CC(O)(C(=O)COC(=O)CCC(=O)NCCN1CCOCC1)CC3O[C@H]1C[C@H](n2cccc2)[C@H](O)[C@H](C)O1 (stereo partly drawn) [Example 89, 10-((3′-(pyrrol-1-yl)-2′,3′,6′-trideoxy-alphal-l-lyxo-hexylpyranyl)oxy)-7,8,9,10-tetrahydro-6,8,11-trihydroxy-13-oxo-14-(4-((2-(morpholin-1-yl)ethyl)amino)-4-oxo-butyrato)-1-methoxy-5,12-naphthalenedione acetate]
- IC50 (A431 cells): 46 nM
- IC50 (B16 cells): 3 nM
- IC50 (A375 cells): 48 nM
- IC50 (NCI-H460 cells): 2.5 nM
- IC50 (MCF-7 cells): 333 nM
- IC50 (DU-145 cells): 56 nM
- IC50 (NCI-446 cells): 140 nM

Compound: COc1cccc2c1C(=O)c1c(O)c3c(c(O)c1C2=O)CC(O)(C(=O)COC(=O)CCC(=O)NCCOCCOCCOCCOCCOCCOCCOCCO)CC3OC1CC(n2cccc2)C(O)C(C)O1 (stereo not drawn) [Example 90]
- IC50 (786-O cells): 90 nM
- IC50 (Hep3B cells): 29 nM
- IC50 (DU-145 cells): 30 nM

Compound: COCCOCCOCCOCCOCCOCCOCCOCCOCCNC(=O)CCC(=O)OCC(=O)C1(O)Cc2c(O)c3c(c(O)c2C(OC2CC(n4cccc4)C(O)C(C)O2)C1)C(=O)c1c(OC)cccc1C3=O (stereo not drawn) [Example 98]
- IC50 (SK-Br-3 cells): 15 nM

Compound: COc1cccc2c1C(=O)c1c(O)c3c(c(O)c1C2=O)CC(O)(C(=O)COC(=O)CCC(=O)NCCN1CCOCC1)CC3O[C@H]1C[C@H](n2cccc2)[C@H](O)[C@H](C)O1.O=P(O)(O)O (stereo partly drawn) [Example 96, 10-((3′-(pyrrol-1-yl)-2′,3′,6′-trideoxy-alphal-l-lyxo-hexylpyranyl)oxy)-7,8,9,10-tetrahydro-6,8,11-trihydroxy-13-oxo-14-(4-((2-(morpholin-1-yl)ethyl)amino)-4-oxo-butyrato)-1-methoxy-5,12-naphthalenedione phosphate]
- solubility of the compound in water [1]: more than 26 mg/ml
- stability on storage (degraded product by HPLC) [2]: No obvious degraded product was observed

Compound: COc1cccc2c1C(=O)c1c(O)c3c(c(O)c1C2=O)CC(O)(C(=O)COC(=O)CCC(=O)NCCOCCOCCOCCOCCOCCOCCOCCOCCOCCOCCOCCO)CC3OC1CC(n2cccc2)C(O)C(C)O1 (stereo not drawn) [Example 92]
- IC50 (Hep3B cells): 28 nM
- IC50 (DU-145 cells): 61 nM
